Measurements as given in PMC6327044, “A chemical biology screen identifies a vulnerability of neuroendocrine cancer cells to SQLE inhibition” (Nature Communications, 2019).

Experiments:
Experiment in all cases: cells
Design in all cases: species or system panel of 482 human cancer cell lines; ATPLite luminescence growth inhibition after treatment, nine-point dilution curve, 482 cancer cell lines, 384-well
Conditions in all cases: 72 h, recommended growth medium
HCC2218_BREAST = tested on: HCC2218_BREAST
Method: (§1) Cells were seeded in recommended growth media in black 384-well tissue culture treated plates at 500 cells per well. Cells were equilibrated in assay plates via centrifugation and placed in incubators for 24 h before treatment. […] Treated assay plates were incubated with compounds for 72 h and subsequently were developed for endpoint analysis using ATPLite. Each compound was assessed using a nine-point dilution curve. Cells were defined as sensitive to a given compound based on GI75 < 2 μM with manual quality control of curve fit. GI75 is defined as a drug concentration that causes a 75% reduction in assay readout relative to dimethyl sulfoxide (DMSO)-treated controls. To identify novel cancer vulnerabilities, we screened a panel of 482 cell lines with a diverse set of metabolic inhibitors. […] Given that SCLC is thought to arise from neuroendocrine cells in the lung[9], we tested the NB-598 sensitivity in a panel of 42 SCLC cell lines. We calculated a quantitative metric of sensitivity for each cell line based on the area under the curve (AUC) of the mu/mu.max curve to more accurately capture the potency and extent of NB-598 effects. […] We categorized the SCLC cell lines as sensitive (5/42), moderate (11/42), and insensitive (26/42) (Fig. 1c and Supplementary Data 2) and focused all subsequent efforts on this indication. […] To further understand the patterns of sensitivity, we conducted RNA sequencing (RNA-Seq; Supplementary Data 3) and proteomic (Supplementary Data 4) characterization of the SCLC panel to identify unbiased expression signatures associated with enhanced NB-598 response (Supplementary Fig. 1 and Supplementary Fig. 2). Given the growing understanding that SCLC tumors can be further subdivided based on the status of lineage-defining transcription factors, ASLC1 and NEUROD1, we specifically investigated NB-598 response as the function of ASCL1 and NEUROD1 expression levels. […] To further dissect the NB-598 response within the ASCL1-high/NEUROD-low subset of 25 cell lines, we identified RNA-Seq and proteomics expression signatures associated with NB

[1] = tested on: WSUNHL_HAEMATOPOIETIC_AND_LYMPHOID_TISSUE
Method: as §1

NCIH1048_LUNG = tested on: NCIH1048_LUNG
Method: as §1

UACC893_BREAST = tested on: UACC893_BREAST
Method: as §1

NCIH1155_LUNG = tested on: NCIH1155_LUNG
Method: as §1

LK2_LUNG = tested on: LK2_LUNG
Method: as §1

NCIH1944_LUNG = tested on: NCIH1944_LUNG
Method: as §1

NCIH2122_LUNG = tested on: NCIH2122_LUNG
Method: as §1

NCIH2110_LUNG = tested on: NCIH2110_LUNG
Method: as §1

[2] = tested on: SNU1066_UPPER_AERODIGESTIVE_TRACT
Method: as §1

SNU601_STOMACH = tested on: SNU601_STOMACH
Method: as §1

NCIH1869_LUNG = tested on: NCIH1869_LUNG
Method: as §1

SKNDZ_AUTONOMIC_GANGLIA = tested on: SKNDZ_AUTONOMIC_GANGLIA
Method: as §1

NCIH1435_LUNG = tested on: NCIH1435_LUNG
Method: as §1

[3] = tested on: KMS20_HAEMATOPOIETIC_AND_LYMPHOID_TISSUE
Method: as §1

JHH5_LIVER = tested on: JHH5_LIVER
Method: as §1

[4] = tested on: OCILY3_HAEMATOPOIETIC_AND_LYMPHOID_TISSUE
Method: as §1

`CCN(C/C=C/C#CC(C)(C)C)Cc1cccc(OCc2cc(-c3ccsc3)cs2)c1` [NB-598] was tested, and the GI50 (HCC2218_BREAST) was 7.17 µM, the GI50 [1] was 21.8 nM and the GI50 (NCIH1048_LUNG) was 9.06 µM. The GI50 (UACC893_BREAST) was 1190 nM, the GI50 (NCIH1155_LUNG) was 5.17 nM and the GI50 (LK2_LUNG) was 22.4 nM. For the same molecule, the GI50 (NCIH1944_LUNG) was 27.1 nM, the GI50 (NCIH2122_LUNG) was 7.51 µM and the GI50 (NCIH2110_LUNG) was 36.2 µM. The GI50 [2] was 121 µM, the GI50 (SNU601_STOMACH) was 5.4 µM and the GI50 (NCIH1869_LUNG) was 15.2 nM. The GI50 (SKNDZ_AUTONOMIC_GANGLIA) was 12 nM, the GI50 (NCIH1435_LUNG) was 3.11 nM and the GI50 [3] was 6.54 µM. It also gave a GI50 (JHH5_LIVER) of 42.7 µM and a GI50 [4] of 91.1 nM.
